# Data from patent publication US20250352555A1, “METHOD OF INCREASING IMMUNE CELL ACTIVATION AND/OR TREATING CANCER USING DIBENZOXAZEPINONES” (VASCULAR THERAPEUTICS PTY LTD, priority 2022, published 2025).
# Experiments:
# p-ERK = assay: Western blotting time course for p-ERK, Jurkat T cells; type: cell-based, human; conditions: Western blot time course
# Procedure: (§1) Western blotting. Cells were treated with compounds and times indicated and total cell lysates were prepared in RIPA buffer. Lysates (10 μg) were resolved by SDS-PAGE and transferred to Immobilon-P polyvinylidene difluoride (PVDF) membranes (Millipore, USA).
# (§2) Membranes were blocked with 5% skim milk and incubated with rabbit monoclonal anti-c-Jun (Abcam, cat. no. ab32137; mouse, rat and human reactive) antibody, rabbit monoclonal anti-PD-1 (Abcam, cat. no. ab214421) antibody, mouse monoclonal β-actin antibody (Sigma-Aldrich, cat. no. A5316), anti-phospho-SAPK/JNK (Thr^183/Tyr^185) (98F2) (CST, cat. no. 4671) antibody, anti-phospho-p44/42 MAPK (ERK1/2) (Thr^202/Tyr^204) (D13.14.4E) (CST, cat. no. 4370) antibody, anti-phospho-p38 MAPK (Thr^180/Tyr^182) (D3F9) (CST, cat. no. 4511) antibody, anti-SAPK/JNK antibody (CST, cat. no. 9252), anti-p44/42 MAPK (ERK1/2) (137F5) antibody (CST, cat. no. 4695), anti-p38 MAPK antibody (CST, cat. no. 9212), anti-DUSP8 antibody (Abcam, cat. no. ab198175) or anti-c-MAF (BLR045F) antibody (Abcam, cat. no. ab243901). […] Chemiluminescence was detected using the Western Lightning Chemiluminescence system (Thermo Scientific, USA) and ImageQuant™ LAS 4000 biomolecular imager (GE Healthcare Life Sciences, USA). Band intensity in images generated with the LAS 4000 was quantified using NIH Image J. […]
# JUN [1] = assay: Western blotting for JUN, MeWo cells; type: cell-based, human; conditions: MeWo cells (BRAF WT), 24 h, dose-dependent
# Procedure: as §1, §2
# PD-1 = assay: Immunohistochemistry of B16F10 tumors (Day 17), PD-1; type: in vivo, mouse; conditions: B16F10 tumors Day 17, 200 mg/kg i.p., vs vehicle
# Source text: (§3) Immunohistochemical staining and analyses. Rabbit monoclonal anti-CD3 (cat. no. ab16669; mouse, rat and human reactive), rabbit monoclonal anti-PD-1 (cat. no. ab214421), rabbit monoclonal anti-CD68 (cat. no. ab125212) antibodies were obtained from Abcam, rabbit monoclonal anti-phospho-ERK (Thr^202/Tyr^204) (cat. no. CST4370), rabbit monoclonal total ERK (cat. no. CST4695), antibodies were obtained from Cell Signaling Technology. Rabbit polyclonal anti-PD-L1 (cat. no. PA5-20343) antibody was obtained from ThermoFisher.
# Formalin fixed, paraffin embedded sections were prepared from tumors. Heat-induced epitope retrieval was applied to all deparaffinized sections (4 μm sections on Superfrost slides) with citrate buffer, pH 6.0 for 5 min at 110° C. Sections were blocked with Dual Endogenous Enzyme Block (DAKO, S2003) for 10 min and then with 2% skim milk for 20 min. Slides were incubated with primary antibody for 60 min at room temperature or overnight at 4° C. and then for 10 min with probe of MACH3 Rabbit AP-Polymer Detection solution (Biocare Medical, M3R533 G, H, L). […] Integrated optical density (IOD) or area of positive staining (red chromagen) was assessed using Image-Pro Plus software (Cybernetics, Bethesda, MD, USA). Positive staining was the average of quantitation in 4-8 fields of view under 20× or 40× objectives. […]
# JUN [2] = assay: Western blotting for JUN, A375 cells; type: cell-based, human; conditions: A375 cells (BRAF^V600E), 24 h, dose-dependent
# Procedure: as §1, §2
# p-JNK = assay: Western blotting time course for p-JNK, Jurkat T cells; type: cell-based, human; conditions: Western blot time course
# Procedure: as §1, §2
# total ERK [3] = assay: Immunohistochemistry of MDA-MB-435 tumors, total ERK; type: in vivo, mouse; conditions: SCID mice, 20 mg/kg i.t.
# Source text: as §3
# Formalin fixed, paraffin embedded sections were prepared from tumors. Heat-induced epitope retrieval was applied to all deparaffinized sections (4 μm sections on Superfrost slides) with citrate buffer, pH 6.0 for 5 min at 110° C. Sections were blocked with Dual Endogenous Enzyme Block (DAKO, S2003) for 10 min and then with 2% skim milk for 20 min. Slides were incubated with primary antibody for 60 min at room temperature or overnight at 4° C. and then for 10 min with probe of MACH3 Rabbit AP-Polymer Detection solution (Biocare Medical, M3R533 G, H, L). […] Integrated optical density (IOD) or area of positive staining (red chromagen) was assessed using Image-Pro Plus software (Cybernetics, Bethesda, MD, USA). Positive staining was the average of quantitation in 4-8 fields of view under 20× or 40× objectives.
# total ERK [4] = assay: Immunohistochemistry of B16F10 tumors (Day 17), total ERK; type: in vivo, mouse; conditions: B16F10 tumors Day 17, 200 mg/kg i.p.
# Source text: as §3
# Formalin fixed, paraffin embedded sections were prepared from tumors. Heat-induced epitope retrieval was applied to all deparaffinized sections (4 μm sections on Superfrost slides) with citrate buffer, pH 6.0 for 5 min at 110° C. […] Integrated optical density (IOD) or area of positive staining (red chromagen) was assessed using Image-Pro Plus software (Cybernetics, Bethesda, MD, USA). Positive staining was the average of quantitation in 4-8 fields of view under 20× or 40× objectives.
# To assess the effect of BT2 in the same model, C57BL/6J mice bearing s.c. B16F10 tumors were administered with BT2 or vehicle (200 mg/kg or 20 ml/kg, respectively, i.p.) once a day on a 5 days-on/2 days-off schedule. […] Tumor size on Day 17 measured using callipers (FIG. 10A) correlated with isolated weighed tumors (FIG. 10B).
smiles,measurement,setting,value
"CCOC(=O)Nc1ccc2c(c1)C(=O)N(CC)c1ccccc1O2 [BT2, (10-ethyl-11-oxo-10,11-dihydro-dibenzo[b,f][1,4]oxazepin-2-yl)-carbamic acid ethyl ester]",levels of ERK phosphorylation,p-ERK,no effect
same,JUN expression (Western blot),JUN [1],increased
same,PD-1 levels in tumors (IHC),PD-1,reduced
same,JUN expression (Western blot),JUN [2],increased
same,time to stimulation of JNK phosphorylation,p-JNK,≤ 1 h
same,total ERK levels in the tumors (IHC),total ERK [3],no effect on total ERK levels
same,total ERK levels in tumors (IHC),total ERK [4],without affecting total ERK levels
